Tests used:
mouse [1] = details: Prenatal developmental toxicity study, other, Oral, Gavage/Intubation, dose end: 15 GD, group: developmental
mouse [2] = details: Subchronic inhalation toxicity, b6c3f1, Whole-Body, dose end: 12 week, group: systemic
mouse [3] = details: Prenatal developmental toxicity study, other, Injection, Intraperitoneal, dose end: 15 GD
mouse [4] = details: Subchronic inhalation toxicity, other, Whole-Body, dose end: 13 week, group: systemic
rat = details: Subchronic oral toxicity in rodents, wistar, Feed, dose end: 104 day, group: systemic
rabbit [5] = details: Prenatal developmental toxicity study, himalayan, Dermal, Topical, dose end: 18 GD
mouse [6] = details: Carcinogenicity; cd1; Inhalation; Whole-Body; dose end: 18 month; group: systemic; systemic / pathology microscopic / liver / hemosiderosis + systemic / pathology microscopic / liver / hyperplasia + systemic / pathology …
rabbit [7] = details: Prenatal developmental toxicity study, himalayan, Inhalation, Whole-Body, dose end: 19 GD
[8] = developmental / developmental malformation / general / [other] + developmental / developmental malformation / general / crown-rump length + …
[9] = developmental / developmental malformation / general / crown-rump length + systemic / in life observation / body weight / fetal weight
[10] = systemic / in life observation / mortality / mortality + systemic / pathology gross / liver / discolored + systemic / pathology microscopic…
[11] = systemic / pathology microscopic / liver / cytomegaly
[12] = group: developmental, developmental / developmental malformation / bone / exencephaly
[13] = group: maternal, reproductive / reproductive performance / resorptions / resorptions
[14] = group: maternal, reproductive / reproductive performance / resorptions / resorptions + systemic / in life observation / body weight / body weight + systemic…
[15] = systemic / clinical chemistry / alanine aminotransferase (alt/sgpt) / alanine aminotransferase (alt/sgpt) + systemic / clinical chemistry / …
[16] = systemic / clinical chemistry / cholesterol / cholesterol + systemic / hematology / erythrocyte (rbc) count differential / erythrocyte (rbc…
[17] = systemic / clinical chemistry / sodium / sodium + systemic / in life observation / body weight / body weight gain + systemic / in life …
[18] = group: developmental, developmental / developmental malformation / general / [other]
[19] = group: maternal, systemic / in life observation / body weight / body weight + systemic / in life observation / clinical signs / skin ulceration
[20] = group: developmental, developmental / developmental malformation / bone / bipartite ossification + developmental / developmental malformation / bone / fused + …
[21] = group: maternal, systemic / in life observation / body weight / body weight

CN(C)C=O [N,N-Dimethylformamide]
LOAEL (mouse [1]; [8]): > 548 mg/kg/day | NOAEL (mouse [1]; [8]): ≥ 548 mg/kg/day | LEL (mouse [1]; [9]): 182 mg/kg/day | NEL (mouse [1]; [9]): < 182 mg/kg/day | LOAEL (mouse [2]; [10]): > 1200 ppm | NOAEL (mouse [2]; [10]): ≥ 1200 ppm | LEL (mouse [2]; [11]): 150 ppm | NEL (mouse [2]; [11]): < 150 ppm | LEL (mouse [3]; [12]): 944 mg/kg/day | LOAEL (mouse [3]; [12]): > 944 mg/kg/day | NEL (mouse [3]; [12]): 378 mg/kg/day | NOAEL (mouse [3]; [12]): ≥ 944 mg/kg/day | LEL (mouse [3]; [13]): 378 mg/kg/day | NEL (mouse [3]; [13]): < 378 mg/kg/day | LOAEL (mouse [3]; [14]): > 944 mg/kg/day | NOAEL (mouse [3]; [14]): ≥ 944 mg/kg/day | LOAEL (mouse [4]; [15]): > 800 ppm | NOAEL (mouse [4]; [15]): ≥ 800 ppm | LEL (mouse [4]; [16]): 50 ppm | NEL (mouse [4]; [16]): < 50 ppm | LOAEL (rat; [17]): > 210 mg/kg/day | NOAEL (rat; [17]): ≥ 210 mg/kg/day | LEL (rat; systemic / in life observation / food consumption / food consumption): 69 mg/kg/day | NEL (rat; systemic / in life observation / food consumption / food consumption + systemic / in life observation / body weight / body weight gain + …): 20 mg/kg/day | LEL (rabbit [5]; [18]): 400 mg/kg/day | LOAEL (rabbit [5]; [18]): > 400 mg/kg/day | NEL (rabbit [5]; [18]): 200 mg/kg/day | NOAEL (rabbit [5]; [18]): ≥ 400 mg/kg/day | LEL (rabbit [5]; [19]): 400 mg/kg/day | LOAEL (rabbit [5]; [19]): > 400 mg/kg/day | NEL (rabbit [5]; [19]): 200 mg/kg/day | NOAEL (rabbit [5]; [19]): ≥ 400 mg/kg/day | LEL (mouse [6]): 25 ppm | LOAEL (mouse [6]): > 400 ppm | NEL (mouse [6]): < 25 ppm | NOAEL (mouse [6]): ≥ 400 ppm | LEL (rabbit [7]; [20]): 450 ppm | LOAEL (rabbit [7]; [20]): > 450 ppm | NEL (rabbit [7]; [20]): 150 ppm | NOAEL (rabbit [7]; [20]): ≥ 450 ppm | LEL (rabbit [7]; [21]): 450 ppm | LOAEL (rabbit [7]; [21]): > 450 ppm | NEL (rabbit [7]; [21]): 150 ppm | NOAEL (rabbit [7]; [21]): ≥ 450 ppm

— EPA's ToxRefDB 2
